Results from patent publication US10214490B2, “Picolinamides as fungicides” (Dow AgroSciences LLC, priority 2016, dated 2019).
Where two headings read alike, the source gives them in different places.

Experiments:
Type in all cases: in vivo
Zymoseptoria tritici = assay: Fungicidal activity: leaf blotch of wheat (SEPTTR), disease control on wheat seedlings; details: for pest or weed control at 100 ppm / pest or weed control at 121.5 g/ha: Zymoseptoria tritici
Protocol: Technical grades of materials were dissolved in acetone, which were then mixed with nine volumes of water containing 110 ppm Triton X-100. The fungicide solutions were applied onto wheat seedlings using an automated booth sprayer to run-off. All sprayed plants were allowed to air dry prior to further handling. All fungicides were evaluated using the aforementioned method for their activity vs. all target diseases, unless stated otherwise. Wheat leaf blotch and brown rust activity were also evaluated using track spray applications, in which case the fungicides were formulated as EC formulations, containing 0.1% Trycol 5941 in the spray solutions. Wheat plants (variety Yuma) were grown from seed in a greenhouse in 50% mineral soil/50% soil-less Metro mix until the first leaf was fully emerged, with 7-10 seedlings per pot. These plants were inoculated with an aqueous spore suspension of Zymoseptoria tritici either prior to or after fungicide treatments. After inoculation the plants were kept in 100% relative humidity (one day in a dark dew chamber followed by two to three days in a lighted dew chamber at 20° C.) to permit spores to germinate and infect the leaf. The plants were then transferred to a greenhouse set at 20° C. for disease to develop. When disease symptoms were fully expressed on the 1st leaves of untreated plants, infection levels were assessed on a scale of 0 to 100 percent disease severity. Percent disease control was calculated using the ratio of disease severity on treated plants relative to untreated plants.

Puccinia triticina = assay: Fungicidal activity: wheat brown rust (PUCCRT), disease control on wheat seedlings
Protocol: Technical grades of materials were dissolved in acetone, which were then mixed with nine volumes of water containing 110 ppm Triton X-100. The fungicide solutions were applied onto wheat seedlings using an automated booth sprayer to run-off. All sprayed plants were allowed to air dry prior to further handling. All fungicides were evaluated using the aforementioned method for their activity vs. all target diseases, unless stated otherwise. Wheat leaf blotch and brown rust activity were also evaluated using track spray applications, in which case the fungicides were formulated as EC formulations, containing 0.1% Trycol 5941 in the spray solutions. Wheat plants (variety Yuma) were grown from seed in a greenhouse in 50% mineral soil/50% soil-less Metro mix until the first leaf was fully emerged, with 7-10 seedlings per pot. These plants were inoculated with an aqueous spore suspension of Puccinia triticina either prior to or after fungicide treatments. After inoculation the plants were kept in a dark dew room at 22° C. with 100% relative humidity overnight to permit spores to germinate and infect the leaf. The plants were then transferred to a greenhouse set at 24° C. for disease to develop. Fungicide formulation, application and disease assessment followed the procedures as described in the Example A. Results of the evaluations are shown below in Table 4.

Phakopsora pachyrhizi = assay: Fungicidal activity: Asian soybean rust (PHAKPA), disease control on soybean seedlings; details: High Volume at 25 ppm
Protocol: Technical grades of materials were dissolved in acetone, which were then mixed with nine volumes of water containing 0.011% Tween 20. The fungicide solutions were applied onto soybean seedlings using an automated booth sprayer to run-off. All sprayed plants were allowed to air dry prior to further handling.
Soybean plants (variety Williams 82) were grown in soil-less Metro mix, with one plant per pot. Two weeks old seedlings were used for testing. Plants were inoculated either 3 days prior to or 1 day after fungicide treatments. Plants were incubated for 24 h in a dark dew room at 22° C. and 100% relative humidity then transferred to a growth room at 23° C. for disease to develop. Disease severity was assessed on the sprayed leaves.

[1] = HV activity at 100 ppm, 3 Day Curative
[2] = HV activity at 100 ppm, 1 Day Protectant
[3] = 24 h, LV activity at 121.5 g/H, 1 Day Protectant, read-out: SEPTTR 1DP disease control rating
[4] = 72 h, LV activity at 121.5 g/H, 3 Day Curative, read-out: SEPTTR 3DC disease control rating
[5] = Puccinia triticina, 24 h, LV activity at 121.5 g/H, 1 Day Protectant, read-out: PUCCRT 1DP disease control rating
[6] = Puccinia triticina, 72 h, LV activity at 121.5 g/H, 3 Day Curative, read-out: PUCCRT 3DC disease control rating
[7] = 24 h, 1 Day Protectant, read-out: PHAKPA 1DP disease control rating
[8] = 72 h, 3 Day Curative, read-out: PHAKPA 3DC disease control rating
[9] = LV activity at 121.5 g/H, 3 Day Curative

SMILES	pest or weed control at 121.5 g/ha (Zymoseptoria tritici; [3]) [%]	pest or weed control at 121.5 g/ha (Zymoseptoria tritici; [4]) [%]	pest or weed control at 121.5 g/ha (Puccinia triticina; [5]) [%]	pest or weed control at 121.5 g/ha (Puccinia triticina; [6]) [%]	pest or weed control at 25 ppm (Phakopsora pachyrhizi; [7]) [%]	pest or weed control at 25 ppm (Phakopsora pachyrhizi; [8]) [%]	other results
COc1cc(F)ccc1[C@@H](Sc1ccccc1)[C@H](C)OC(=O)[C@H](C)NC(=O)c1nccc(OC)c1O [Compound 40]							pest or weed control at 100 ppm (Zymoseptoria tritici; 24 h, HV activity at 100 ppm, 1 Day Protectant, read-out: SEPTTR 1DP disease control rating): > 80%; pest or weed control at 100 ppm (Zymoseptoria tritici; 72 h, HV activity at 100 ppm, 3 Day Curative, read-out: SEPTTR 3DC disease control rating): > 80%; PUCCRT 3DC disease control rating (Puccinia triticina; [1]): A (>80); pest or weed control at 100 ppm (Puccinia triticina; Puccinia triticina, 24 h, HV activity at 100 ppm, 1 Day Protectant, read-out: PUCCRT 1DP disease control rating): > 80%
COc1cc(F)ccc1[C@@H](Sc1ccccc1)[C@H](C)OC(=O)[C@H](C)NC(=O)c1nccc(OC)c1O [Compound 57]							SEPTTR 1DP disease control rating (Zymoseptoria tritici; [2]): B (≤80); SEPTTR 3DC disease control rating (Zymoseptoria tritici; [1]): A (>80); PUCCRT 1DP disease control rating (Puccinia triticina; [2]): A (>80); PUCCRT 3DC disease control rating (Puccinia triticina; [1]): D (≤0)
COc1cc(F)ccc1[C@@H](Sc1ccccc1)[C@H](C)OC(=O)[C@H](C)NC(=O)c1nccc(OC)c1OC(C)=O [Compound 59]	≤ 80	≤ 80	> 80				
COc1ccnc(C(=O)N[C@@H](C)C(=O)O[C@@H](C)[C@@H](c2ccccc2)S(=O)(=O)c2ccc(C)cc2)c1OC(C)=O [Compound 66]	> 80	≤ 80	≤ 80	≤ 80	≤ 80	≤ 80	
COc1ccnc(C(=O)N[C@@H](C)C(=O)O[C@@H](C)[C@@H](c2ccccc2)S(=O)(=O)c2ccc(C(F)(F)F)cn2)c1OC(C)=O [Compound 71]	≤ 80	≤ 80	≤ 0	≤ 80	≤ 80	≤ 80	
COc1ccnc(C(=O)N[C@@H](C)C(=O)O[C@@H](C)[C@H](Sc2ccccc2)c2ccccc2)c1OC(=O)OC(=O)C(C)C [Compound 79]	> 80	> 80	> 80	≤ 80	≤ 80	≤ 80	
COc1ccnc(C(=O)N[C@@H](C)C(=O)O[C@@H](C)[C@H](Sc2ccccc2)c2ccccc2)c1OC(=O)OC(C)=O [Compound 80]	≤ 80	≤ 80	> 80	≤ 80	≤ 80	≤ 80	
COc1ccnc(C(=O)N[C@@H](C)C(=O)O[C@@H](C)[C@H](Sc2ccc(F)cc2C)c2ccccc2)c1OC(C)=O [Compound 83]	≤ 80			≤ 0			SEPTTR 3DC disease control rating (Zymoseptoria tritici; [9]): D (≤0)
COc1cc(F)ccc1[C@@H](Sc1ccccc1)[C@H](C)OC(=O)[C@H](C)NC(=O)c1nccc(OC)c1OC(C)=O [Compound 84]							PUCCRT 3DC disease control rating (Puccinia triticina; [9]): B (≤80)
COc1ccnc(C(=O)N[C@@H](C)C(=O)O[C@@H](C)[C@H](Sc2ccccc2)c2ccc(F)cc2)c1OC(C)=O [Compound 85]				≤ 0	≤ 80	≤ 0	SEPTTR 1DP disease control rating (Zymoseptoria tritici; LV activity at 121.5 g/H, 1 Day Protectant): B (≤80); SEPTTR 3DC disease control rating (Zymoseptoria tritici; [9]): D (≤0)
